Assay results as given in patent US20050202511A1, “AMP-activated protein kinase (AMPK) inhibitor screening assay” (priority 2002, published 2005).
Where “and” joins values, the source holds several entries; their conditions need not be identical. Equal entries are not always repeated. Where two headings read alike, the source gives them in different places.

Assays:
AMPK-γ2 CBS1-4 (Lins) = molecular target: T1, AMPK-γ2 CBS1-4 (Lins) (Homo sapiens, UniProt Q9UGJ0, INS350L); experiment: Filter binding assay, GST-CBS domain fusion; conditions: for Kd: two site Hill plot model, read-out: B0.5
T1 construct: fused on or other part: GST at the N-terminus followed by a hexaglycine spacer (pGEX-KG)
Experimental: (§1) With the H383R, T400N and R531G mutants there were large increases in B0.5 (6-, 8- and 10-fold) with no significant change in Hill coefficient.
(§2) Various concentrations of [^14C]-AMP, [γ^32P] […] Reactions were stopped by spotting 10 ìl onto a Millipore MF Filter Membrane disc and rapidly washing under high vacuum with 1 ml of ice-cold TBS. Radioactivity was determined on the filters by scintillation counting. Non-specific binding (which was trivial) was determined by performing the assay with GST as a control, and was subtracted. […] Data were fitted to the binding models given in the text, using GraphPad Prism 3. Estimates of parameters resulting from fits are quoted in the text and Table 1±standard error, and the curves shown in figures are theoretical curves obtained using those estimates.

AMPK-γ2 CBS1-4 (R302Q) = molecular target: T2, AMPK-γ2 CBS1-4 (R302Q) (Homo sapiens, UniProt Q9UGJ0, R302Q); experiment: Filter binding assay, GST-CBS domain fusion; conditions: for Kd: two site Hill plot model, read-out: B0.5
T2 construct: all four CBS domains (CBS1-4, residues 274-569); made in house; host or cells: E. coli BL21 (DE3)
Experimental: as §1, §2

AMPK-γ2 CBS1-4 (R531G) = molecular target: T3, AMPK-γ2 CBS1-4 (R531G) (Homo sapiens, UniProt Q9UGJ0, R531G); experiment: Filter binding assay, GST-CBS domain fusion; conditions: for Kd: two site Hill plot model, read-out: B0.5
T3 construct: all four CBS domains (CBS1-4, residues 274-569); made in house; host or cells: E. coli BL21 (DE3)
Experimental: as §1, §2

AMPK-γ2 CBS1-4 (T400N) = molecular target: T4, AMPK-γ2 CBS1-4 (T400N) (Homo sapiens, UniProt Q9UGJ0, T400N); experiment: Filter binding assay, GST-CBS domain fusion; conditions: for Kd: two site Hill plot model, read-out: B0.5
T4 construct: all four CBS domains (CBS1-4, residues 274-569); made in house; host or cells: E. coli BL21 (DE3)
Experimental: as §1, §2

AMPK-γ2 CBS1-4 (H383R) = molecular target: T5, AMPK-γ2 CBS1-4 (H383R) (Homo sapiens, UniProt Q9UGJ0, H383R); experiment: Filter binding assay, GST-CBS domain fusion; conditions: for Kd: two site Hill plot model, read-out: B0.5
T5 construct: all four CBS domains (CBS1-4, residues 274-569); made in house; host or cells: E. coli BL21 (DE3)
Experimental: as §1, §2

IMPDH2 CBS1-2 (WT) = molecular target: T6, IMPDH2 CBS1-2 (WT) (Homo sapiens, UniProt P12268); experiment: Filter binding assay, isolated CBS domain pair; conditions: single-site model
T6 construct: DNAs encoding residues 112-232 or the full-length protein (1-514) were amplified; His tag (pHAT20 vector); made in house; host or cells: E. coli
From the text: To examine whether binding of adenine nucleotides is a general function for CBS domains, or is specific to the γ subunits of AMPK, IMP dehydrogenase (IMPDH) was also studied. Retinitis pigmentosa can be caused by an R224P mutation in the second CBS domain of the IMPDH1 isoform (27). However, the IMPDH2 isoform is 84% identical in amino acid sequence with IMPDH1, and the arginine mutated in retinitis pigmentosa is conserved. Because the IMPDH2 isoform is ubiquitously expressed and a suitable cDNA to use as a template for PCR was more readily available, DNA encoding the single pair of CBS domains from human IMPDH2 was cloned, an R224P mutation was created and expressed both the wild type and the mutant as His-tagged proteins in E. coli.
For IMPDH2, DNAs encoding residues 112-232 or the full-length protein (1-514) were amplified using human liver cDNA (Clontech) as template, and cloned into pHAT20 (Clontech) using 5′-AgeI and 3′-KpnI sites added to the primers. For the other constructs, DNAs encoding residues 582-840 of CLC2, or 416-551 of cystathionine â-synthase, were amplified using human liver cDNA as template, and cloned into pGEX-KG as above using 5′-BamHI and 3′-XhoI sites added to the primers. All mutations were created using the Stratagene QuikChange Site-directed Mutagenesis system.
The IMPDH2 constructs were His-tagged and were purified on chelating-Sepharose (Pharmacia) charged with 50 mM CoCl2 according to manufacturer's instructions.
as §2, with “Estimates of parameters resulting from fits are quoted in the text and Table 1±standard error, and the curves shown in figures are theoretical curves obtained using those estimates.” left out

AMPK-γ2 CBS3-4 (WT) = molecular target: T7, AMPK-γ2 CBS3-4 (WT) (Homo sapiens, UniProt Q9UGJ0); experiment: Filter binding assay, GST-CBS domain fusion; conditions: single-site model
T7 construct: the C-terminal pair (CBS3-4, residues 430-556); made in house; host or cells: E. coli BL21 (DE3)
From the text: (§3) The boundaries of the CBS domains were taken from the alignments by Bateman. Using a plasmid encoding human γ2 as the template, PCR was used to produce DNAs encoding all four CBS domains (CBS1-4, residues 274-569), the N-terminal pair (CBS1-2, residues 274-410) or the C-terminal pair (CBS3-4, residues 430-556). The PCR primers had been designed to create BamHI and XhoI sites at the ends, and these were used to insert them into a vector that created a fusion protein with glutathione-S-transferase at the N-terminal end followed by a hexaglycine spacer, with the CBS domains at the C-terminus. All three constructs were expressed in E. coli and could be purified on glutathione-Sepharose as soluble proteins of the expected sizes in good yield (CBS1-4, 61 kDa, 5 mg/L of culture; CBS1-2, 43 kDa, 2 mg/L; CBS3-4, 43 kDa, 2 mg/L).
Site-directed mutagenesis was also used to create a point mutation in CBS4 that causes hereditary heart disease (WPWS) (R531G).
Various concentrations of [^14C]-AMP, [γ^32P] […] Reactions were stopped by spotting 10 ìl onto a Millipore MF Filter Membrane disc and rapidly washing under high vacuum with 1 ml of ice-cold TBS. Radioactivity was determined on the filters by scintillation counting. Non-specific binding (which was trivial) was determined by performing the assay with GST as a control, and was subtracted. […]

AMPK-γ2 CBS1-2 (R302Q) = molecular target: T8, AMPK-γ2 CBS1-2 (R302Q) (Homo sapiens, UniProt Q9UGJ0, R302Q); experiment: Filter binding assay, GST-CBS domain fusion; conditions: for Kd: single-site model
T8 construct: the N-terminal pair (CBS1-2, residues 274-410); made in house; host or cells: E. coli BL21 (DE3)
From the text: (§4) Site-directed mutagenesis was used to create the point mutation in CBS1 that causes hereditary heart disease (R302Q).
The present inventors also used site-directed mutagenesis to create four of the mutations in CBS1-2 that cause WPWS, i.e. R302Q, H383R and T400N, and Lins (which inserts a leucine residue in the linker between CBS1 and CBS2).
as §2

AMPK-γ2 CBS1-4 (WT) = molecular target: T9, AMPK-γ2 CBS1-4 (WT) (Homo sapiens, UniProt Q9UGJ0); experiment: Filter binding assay, GST-CBS domain fusion; conditions: for Kd: two site Hill plot model, read-out: B0.5 (concentration giving half-maximal binding)
T9 construct: all four CBS domains (CBS1-4, residues 274-569); made in house; host or cells: E. coli BL21 (DE3)
From the text: as §3, §1, §2

AMPK-γ2 CBS1-2 (WT) = molecular target: T10, AMPK-γ2 CBS1-2 (WT) (Homo sapiens, UniProt Q9UGJ0); experiment: Filter binding assay, GST-CBS domain fusion
T10 construct: the N-terminal pair (CBS1-2, residues 274-410); made in house; host or cells: E. coli BL21 (DE3)
From the text: as §3, §4, §2

T1 sequence (Q9UGJ0 with tags, fused parts or gaps INS350L): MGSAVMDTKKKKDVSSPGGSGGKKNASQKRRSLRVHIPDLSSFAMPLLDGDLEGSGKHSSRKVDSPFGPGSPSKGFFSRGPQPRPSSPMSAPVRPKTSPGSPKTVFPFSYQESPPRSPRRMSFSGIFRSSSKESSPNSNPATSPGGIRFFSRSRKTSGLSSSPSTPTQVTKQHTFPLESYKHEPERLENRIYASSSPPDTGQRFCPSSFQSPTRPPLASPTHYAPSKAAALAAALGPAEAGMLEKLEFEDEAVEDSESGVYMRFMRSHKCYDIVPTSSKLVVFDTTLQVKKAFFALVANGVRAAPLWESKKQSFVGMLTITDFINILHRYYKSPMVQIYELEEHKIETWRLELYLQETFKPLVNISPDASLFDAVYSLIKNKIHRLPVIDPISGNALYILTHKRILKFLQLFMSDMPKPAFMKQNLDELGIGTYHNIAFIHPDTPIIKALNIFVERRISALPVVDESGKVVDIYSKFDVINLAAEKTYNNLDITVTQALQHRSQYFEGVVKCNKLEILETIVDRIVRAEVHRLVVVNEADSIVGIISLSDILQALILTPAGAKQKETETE
T3 sequence (Q9UGJ0 274-569 R531G): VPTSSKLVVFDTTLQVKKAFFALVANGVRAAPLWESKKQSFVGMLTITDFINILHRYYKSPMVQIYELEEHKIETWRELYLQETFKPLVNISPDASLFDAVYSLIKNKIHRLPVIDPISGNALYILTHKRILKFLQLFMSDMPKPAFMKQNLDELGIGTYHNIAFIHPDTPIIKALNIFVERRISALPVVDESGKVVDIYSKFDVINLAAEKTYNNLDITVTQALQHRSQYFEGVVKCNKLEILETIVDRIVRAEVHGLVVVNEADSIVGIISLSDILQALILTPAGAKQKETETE
T2 sequence (Q9UGJ0 274-569 R302Q): as the sequence (Q9UGJ0 274-569 R531G) above, with R29Q, G258R counted along it
T8 sequence (Q9UGJ0 274-410 R302Q): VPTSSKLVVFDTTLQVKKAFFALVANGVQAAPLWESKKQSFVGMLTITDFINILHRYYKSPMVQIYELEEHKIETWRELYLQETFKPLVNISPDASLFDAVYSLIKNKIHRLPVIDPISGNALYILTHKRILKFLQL
T10 sequence (Q9UGJ0 274-410): as the sequence (Q9UGJ0 274-410 R302Q) above, with Q29R counted along it
T4 sequence (Q9UGJ0 274-569 T400N): as the sequence (Q9UGJ0 274-569 R531G) above, with T127N, G258R counted along it
T9 sequence (Q9UGJ0 274-569): as the sequence (Q9UGJ0 274-569 R531G) above, with G258R counted along it
T5 sequence (Q9UGJ0 274-569 H383R): as the sequence (Q9UGJ0 274-569 R531G) above, with H110R, G258R counted along it
T7 sequence (Q9UGJ0 430-556): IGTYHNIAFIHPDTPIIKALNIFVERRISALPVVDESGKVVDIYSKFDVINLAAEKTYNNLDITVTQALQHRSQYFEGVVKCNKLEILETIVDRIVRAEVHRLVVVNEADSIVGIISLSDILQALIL
T6 sequence (P12268 112-232): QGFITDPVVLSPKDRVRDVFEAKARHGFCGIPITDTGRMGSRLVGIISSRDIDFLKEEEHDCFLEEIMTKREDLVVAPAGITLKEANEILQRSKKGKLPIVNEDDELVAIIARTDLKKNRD

Row | h (Hill coefficient) (AMPK-γ2 CBS1-4 (Lins)) | Kd (AMPK-γ2 CBS1-4 (Lins)) | h (Hill coefficient) (AMPK-γ2 CBS1-4 (R302Q)) | Kd (AMPK-γ2 CBS1-4 (R302Q)) | h (Hill coefficient) (AMPK-γ2 CBS1-4 (R531G)) | Kd (AMPK-γ2 CBS1-4 (R531G)) | h (Hill coefficient) (AMPK-γ2 CBS1-4 (T400N)) | Kd (AMPK-γ2 CBS1-4 (T400N)) | h (Hill coefficient) (AMPK-γ2 CBS1-4 (H383R)) | Kd (AMPK-γ2 CBS1-4 (H383R)) | Kd (IMPDH2 CBS1-2 (WT)) | Kd (AMPK-γ2 CBS3-4 (WT)) | Kd (AMPK-γ2 CBS1-2 (R302Q)) | h (Hill coefficient) (AMPK-γ2 CBS1-4 (WT)) | Kd (AMPK-γ2 CBS1-4 (WT)) | SMILES | also measured
1 | 1.8 ± 0.1 | 130 ± 4 µM | 1.9 ± 0.2 | 158 ± 9 µM | 1.6 ± 0.2 | 2800 ± 220 µM | 1.8 ± 0.1 | 1360 ± 47 µM | 1.8 ± 0.2 | 725 ± 36 µM | 437 ± 53 µM | 104 ± 10 µM | 303 ± 42 µM | 2.2 ± 0.1 | 61 µM | Nc1ncnc2c1ncn2[C@@H]1O[C@H](COP(=O)(O)O)[C@@H](O)[C@H]1O [AMP, adenosine monophosphate] | change in B0.5 relative to wild type (AMPK-γ2 CBS1-4 (R302Q)): 2.6 fold; increase in B0.5 relative to wild type (AMPK-γ2 CBS1-4 (R531G)): 46 fold; increase in B0.5 relative to wild type (AMPK-γ2 CBS1-4 (T400N)): 22 fold; increase in B0.5 relative to wild type (AMPK-γ2 CBS1-4 (H383R)): 12 fold; increase in Kd relative to wild type (AMPK-γ2 CBS1-2 (R302Q)): 5.7 fold and 6 fold; Kd (AMPK-γ2 CBS1-2 (WT)): 53 ± 5 µM; maximal binding (Bmax) (AMPK-γ2 CBS1-2 (WT); [14C]AMP): 0.95±0.05 moles of AMP per mole of protein
2 | 1.8 ± 0.2 | 335 ± 28 µM | 1.3 and 1.3 ± 0.2 | 193 ± 25 µM | 2.7 ± 0.5 | 2550 ± 230 µM | 1.7 ± 0.2 | 2000 ± 160 µM | 2.4 ± 0.2 | 1470 ± 55 µM | 54 µM | 403 ± 16 µM | 468 ± 86 µM | 2.2 and 2.2 ± 0.2 | 257 ± 14 µM | Nc1ncnc2c1ncn2[C@@H]1O[C@H](COP(=O)(O)OP(=O)(O)OP(=O)(O)O)[C@@H](O)[C@H]1O [ATP] | Kd (AMPK-γ2 CBS1-2 (WT); single-site model, 5 mM MgCl2 included for ATP): 175 ± 17 µM
